These results are taken from patent US20180250309A1, “METHODS FOR TREATMENT OF MONOCYTE DYSFUNCTION AND CHRONIC INFLAMMATORY MICRO AND MACRO-VASCULAR DISEASES” (THE BOARD OF REGENTS OF THE UNIVERSITY OF TEXAS SYSTEM, priority 2015, published 2018).

Where two headings read alike, the source gives them in different places.

Series [1] in a line: Solubility / hydrophilicity relative to ursolic acid. The format is physicochemical.
The next series has as its system Nox4. Kind of series: Induction of Nox4 in monocytes under metabolic stress. The format is cell-based. The source says:
The inventor has elucidated the mechanism through which hypercholesterolemia and hyperglycemia promote monocyte dysfunction. Monocyte dysfunction is induced by metabolic disorders via the pathological induction of Nox4.

The test system of a further series is THP-1 monocytes. Kind of series: Monocyte chemotaxis of metabolically primed THP-1 monocytes towards MCP-1 (modified Boyden chamber). The series is classed as cell-based, Human. The settings on record: for monocyte chemotaxis: primed with glucose and LDL, 1 nM MCP-1, FIG. 2; for normal or baseline responses to chemokines: unprimed, non-pathogenic chemotaxis. As to the method: (§1) Chemotaxis assays are performed using 48-well, modified Boyden chambers (NeuroProbe, Gaithersburg, Md.) as described previously (1). Briefly, monocytes are primed with glucose and LDL in the presence of UA, 23-OHUA or vehicle (0.1% DMSO). Cells are loaded into upper wells of the chemotaxis chamber. Lower wells contain cell media with 1 nM MCP-1 (R&D Systems, Minneapolic, Minn.) or vehicle. A 5 μm polyvinyl pyrrolidone-free polycarbonate filter membrane is layered between the upper and lower chambers, and the chamber is incubated for 1.5 h for THP-1 monocytes at 37° C. and 5% CO2. The membrane is washed and cells removed from the upper side of the filter and fixed with methanol. Transmigrated are stained with 1 μM propidium iodide. Fluorescence intensity, which correlates with cell number is quantified with KODAK Image Station 4000MM (Carestream, Rochester, N.Y.).
Cell Culture/Priming. Human monocytic THP-1 cells (ATCC) were cultured in THP-1 medium (RPMI 1640, 5 mM glucose, 10% fetal bovine serum (FBS), 2% glutamax, 1% penicillin/streptomycin, 1% HEPES, 0.1% β-mercaptoethanol). Cells are spun down at 400 g, 5 minutes at 25° C. and resuspended in media at […]. Following 48 hours at 37° C. and 5% CO2, cells are plated in 12-well cell culture plates. Phytochemicals are solubilized in dimethylsulfoxide (DMSO) and are added to suspended THP-1 cells at concentrations from 0.03 μM to 3 μM. Control cells without phytonutrients are treated with 0.1% DMSO. Cytotoxicity was assessed with a trypan exclusion assay. To induce a metabolically stressed condition (priming), cells were treated with freshly isolated human LDL is added (100 μg/ml) along with D-glucose (20 mM) for 24 hours.
as §1, with “Chemotaxis. Chemotaxis” for “Chemotaxis”, “(Ullevig et al. Redox Biology. 2014 01/03;2:259-66).” for “(1).”, “islayered” for “is layered”

For the next series, the system named is diabetic atherosclerosis. Kind of series: Dietary supplementation in diabetic mice: monocyte dysfunction, macrophage recruitment, atherosclerosis. The format is in vivo.

In the case of `CC1CCC2(C(=O)O)CCC3(C)C(=CCC4C5(C)CCC(O)C(C)(CO)C5CCC43C)C2C1C` (stereo not drawn) [23-OH UA, 3β, 23-dihydroxyurs-12-en-28oic acid], in series [1], the “hydrophilicity relative to UA” value is “more hydrophilic” and the “solubility compared with ursolic acid” value is given as “more soluble”. In the series on Nox4, the “induction of Nox4” value was “prevents the induction of Nox4” and the monocyte dysfunction entry is “prevents”. Moreover, in the series with THP-1 monocytes, the “monocyte priming by metabolic stress (hypersensitization to chemokine-induced activation)” value is “inhibit”, the monocyte chemotaxis entry is “reducing monocyte chemotaxis” and the “normal or baseline responses to chemokines” value is “do not block or affect normal or baseline responses to chemokines”.

Take `C[C@H]1[C@H](C)CC[C@]2(C(=O)O)CC[C@]3(C)C(=CC[C@@H]4[C@@]5(C)CC[C@H](O)C(C)(C)[C@@H]5CC[C@]43C)[C@H]12` [UA, Ursolic acid]: the “induction of Nox4” value in the series with Nox4 is given as “prevent the induction of Nox4”. Besides, in the series on diabetic atherosclerosis, the atherosclerosis result was “potent inhibitor of diabetic atherosclerosis”; the “monocyte dysfunction and macrophage recruitment” value is “attenuates monocyte dysfunction and macrophage recruitment”. The atherosclerosis entry in the series with diabetic atherosclerosis (listed as ursolic acid) is reported as “protects diabetic mice from atherosclerosis”. In the series with THP-1 monocytes, the “monocyte priming by metabolic stress (hypersensitization to chemokine-induced activation)” value was “inhibit”, the monocyte chemotaxis entry is listed as “reducing monocyte chemotaxis” and the “normal or baseline responses to chemokines” value is “do not block or affect normal or baseline responses to chemokines”.
